Test results published in PubChem BioAssay AID2060495 (Molecular Pharmacology Branch, DTP, NCI, 2025).

Tested on: 521955-158-R2-J5-PDC complex spheroid viability
Assay: Anticancer human tumor 521955-158-R2-J5-PDC patient-derived pancreatic carcinoma cell line growth inhibition [GQUAD]
Details: for IC50: curve of first compound; for viability, T/C: stronger effect = lower value
Description: DNA G-quadruplex Stabilizer Agents in Combinations in Complex Spheroids
A high-throughput screen of multi-cell type tumor spheroids was designed to identify active combinations of DNA G-quadruplex stabilizer agents and targeted small molecules. Complex spheroids include a stromal component modeled by human endothelial cells (HUVEC) and fibroblasts modeled by human mesenchymal stem cells (MSCs). The concentration ranges selected for each drug and investigational agent were based upon clinically achievable concentrations if the clinical Cmax of the agent was known.
Compounds. The drugs and investigational agents: pidnarulex (CX-5461; NSC782164), APTO-253 (NSC789042), BRACO-19 (NSC847499), peposertib (NSC802822), ceralasertib (NSC780249), elimusertib (NSC800525), camonsertib (NSC841442), AZD-1390 (NSC803789), olaparib (NSC753686), talazoparib (NSC767125), ART-558 (NSC835418), sotorasib (NSC818433), MRTX-1133 (NSC836407), SN-38 (NSC673596), topotecan (NSC609699), etoposide (NSC141540), doxorubicin (NSC123127), gemcitabine (NSC613327), 5-fluorouracil (NSC19893), paclitaxel (NSC125973), vemurafenib (NSC761431), panobinostat (NSC761190), R-306465 (JNJ-16241199; NSC773264), adavosertib (NSC754352), TP-3654 (NSC805149), carboplatin (NSC241240), KSQ-4279 (NSC840948), and staurosporine (NSC755774) were obtained from the National Cancer Institute (NCI) Developmental Therapeutics Program Chemical Repository (34). The FDA-approved anticancer drug set is available from the NCI Developmental Therapeutics Program. […] The stock solutions were prepared in dimethyl sulfoxide (DMSO, Sigma-Aldrich, St. Louis, MO, cat. D2650) at 800-fold the tested concentration and stored at -70 degrees C prior to their use. All drugs and investigational agents were tested over a range starting from a high concentration at or near the clinical Cmax and decreasing in half-log increments. If the clinical Cmax for an agent had not been determined, the highest concentration tested was 10 microM.
2.3 Cell Culture. All cells were maintained in an incubator at 37 degrees C and 5% CO2 with 95% humidity. The PDC lines were cultured according to standard operating procedures established by the NCI PDMR. All PDCs were thawed and cultured in Matrigel-coated flasks prepared with a working solution of 1X Ham's F-12 nutrient mix, without supplementation (Invitrogen, cat. 11765054), 100 U/mL penicillin-streptomycin (Invitrogen, cat. 15140122), and 2.5% Matrigel (Corning Inc., cat. 354248) for the first three passages. The 857933-349-R-J2-PDC line was cultured in 6C/Colon 1B media, which includes advanced DMEM/F-12 (Thermo Fisher Scientific, cat. 12634028), 10 mM HEPES (Thermo Fisher Scientific, cat. 15630080), 1X GlutaMAX supplement (Thermo Fisher Scientific, cat. 35050061), 0.1 mg/mL primocin (InvivoGen, cat. ant-pm-2), 10% defined fetal bovine serum, heat inactivated (HyClone Laboratories Inc., cat. SH30070.03HI), 50% L-WRN conditioned media (ATCC, cat. CRL-3276), 1.25 mM N-Acetyl-L-cysteine (Sigma-Aldrich, cat. A9165), 10 mM nicotinamide (Sigma-Aldrich, cat. N0636), 1X B-27 supplement (Thermo Fisher Scientific, cat. 17504044), 1X N-2 supplement (Thermo Fisher Scientific, cat. 17502048), 10 microM Y-27632 dihydrochloride (Tocris Bioscience, cat. 1254), and 50 ng/mL human EGF recombinant protein (Thermo Fisher Scientific, cat. PHG0311). The 485176-168-R4-J1-PDC line was cultured in Panc media, which includes all 6C/Colon 1B media components plus 100 ng/mL human FGF-10 (Thermo Fisher Scientific, cat. 100-26), 500 nM SB-431542 (Selleckchem, cat. S1067), and gastrin (Tocris, cat. 3006).
[…]

[1] = second compound 0.0316 µM, first compound 0.0316 µM
[2] = second compound 0.0316 µM, first compound 0.1 µM
[3] = second compound 0.0316 µM, first compound 0.316 µM
[4] = second compound 0.0316 µM, first compound 1 µM
[5] = second compound 0.0316 µM, first compound 3.16 µM
[6] = second compound 0.0316 µM, first compound 10 µM
[7] = second compound 0.1 µM, first compound 0.0316 µM
[8] = second compound 0.1 µM, first compound 0.1 µM
[9] = second compound 0.1 µM, first compound 0.316 µM
[10] = second compound 0.1 µM, first compound 1 µM
[11] = second compound 0.1 µM, first compound 3.16 µM
[12] = second compound 0.1 µM, first compound 10 µM
[13] = second compound 0.316 µM, first compound 0.0316 µM
[14] = second compound 0.316 µM, first compound 0.1 µM
[15] = second compound 0.316 µM, first compound 0.316 µM
[16] = second compound 0.316 µM, first compound 1 µM
[17] = second compound 0.316 µM, first compound 3.16 µM
[18] = second compound 0.316 µM, first compound 10 µM
[19] = second compound 1 µM, first compound 0.0316 µM
[20] = second compound 1 µM, first compound 0.1 µM
[21] = second compound 1 µM, first compound 0.316 µM
[22] = second compound 1 µM, first compound 1 µM
[23] = second compound 1 µM, first compound 3.16 µM
[24] = second compound 1 µM, first compound 10 µM
[25] = second compound 3.16 µM, first compound 0.0316 µM
[26] = second compound 3.16 µM, first compound 0.1 µM
[27] = second compound 3.16 µM, first compound 0.316 µM
[28] = second compound 3.16 µM, first compound 1 µM
[29] = second compound 3.16 µM, first compound 3.16 µM
[30] = second compound 3.16 µM, first compound 10 µM
[31] = second compound 10 µM, first compound 0.0316 µM
[32] = second compound 10 µM, first compound 0.1 µM
[33] = second compound 10 µM, first compound 0.316 µM
[34] = second compound 10 µM, first compound 1 µM
[35] = second compound 10 µM, first compound 3.16 µM
[36] = second compound 10 µM, first compound 10 µM
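Further: spheroids exposed to agents for one week before reading.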
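Wherever viability, T/C is given: 100% = DMSO vehicle control viability.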

COc1ccc([C@@H](O)c2cc(-c3ncnc4cc(N5CCOCC5)ccc34)c(F)cc2Cl)nn1 + CN(C)c1ccc(Nc2c3ccc(NC(=O)CCN4CCCC4)cc3nc3cc(NC(=O)CCN4CCCC4)ccc23)cc1
IC50 (second compound 0.0316 µM): 7.26 µM
IC50 (second compound 0.1 µM): 5.61 µM
IC50 (second compound 0.316 µM): 6.45 µM
IC50 (second compound 1 µM): 5.52 µM
IC50 (second compound 3.16 µM): 2.5 µM
IC50 (second compound 10 µM): 2 µM
viability, T/C [1]: 91.8%
viability, T/C [2]: 107%
viability, T/C [3]: 91.8%
viability, T/C [4]: 78.9%
viability, T/C [5]: 68.3%
viability, T/C [6]: 43.3%
viability, T/C [7]: 94.2%
viability, T/C [8]: 96.8%
viability, T/C [9]: 92.3%
viability, T/C [10]: 83.9%
viability, T/C [11]: 60%
viability, T/C [12]: 39.9%
viability, T/C [13]: 88.9%
viability, T/C [14]: 105%
viability, T/C [15]: 106%
viability, T/C [16]: 77.8%
viability, T/C [17]: 66.5%
viability, T/C [18]: 41%
viability, T/C [19]: 87.4%
viability, T/C [20]: 101%
viability, T/C [21]: 83%
viability, T/C [22]: 72.4%
viability, T/C [23]: 59.2%
viability, T/C [24]: 41.5%
viability, T/C [25]: 66.4%
viability, T/C [26]: 83.1%
viability, T/C [27]: 74.9%
viability, T/C [28]: 73.7%
viability, T/C [29]: 44%
viability, T/C [30]: 28.8%
viability, T/C [31]: 59.8%
viability, T/C [32]: 55.6%
viability, T/C [33]: 71.3%
viability, T/C [34]: 54.9%
viability, T/C [35]: 45.1%
viability, T/C [36]: 16.7%

O=C(c1cc(Cc2n[nH]c(=O)c3ccccc23)ccc1F)N1CCN(C(=O)C2CC2)CC1 + CN(C)c1ccc(Nc2c3ccc(NC(=O)CCN4CCCC4)cc3nc3cc(NC(=O)CCN4CCCC4)ccc23)cc1
IC50 (second compound 0.0316 µM): > 10 µM
IC50 (second compound 0.1 µM): > 10 µM
IC50 (second compound 0.316 µM): > 10 µM
IC50 (second compound 1 µM): > 10 µM
IC50 (second compound 3.16 µM): > 10 µM
IC50 (second compound 10 µM): > 10 µM
viability, T/C [1]: 93.1%
viability, T/C [2]: 85.2%
viability, T/C [3]: 94%
viability, T/C [4]: 83.5%
viability, T/C [5]: 97.1%
viability, T/C [6]: 85.5%
viability, T/C [7]: 94.4%
viability, T/C [8]: 89.4%
viability, T/C [9]: 97.5%
viability, T/C [10]: 86.6%
viability, T/C [11]: 88.3%
viability, T/C [12]: 71.9%
viability, T/C [13]: 93%
viability, T/C [14]: 90.9%
viability, T/C [15]: 91%
viability, T/C [16]: 85.4%
viability, T/C [17]: 92.6%
viability, T/C [18]: 84.1%
viability, T/C [19]: 90%
viability, T/C [20]: 82.7%
viability, T/C [21]: 92.3%
viability, T/C [22]: 84.5%
viability, T/C [23]: 102%
viability, T/C [24]: 72.8%
viability, T/C [25]: 75.4%
viability, T/C [26]: 90.5%
viability, T/C [27]: 67.1%
viability, T/C [28]: 77.4%
viability, T/C [29]: 80%
viability, T/C [30]: 71.5%
viability, T/C [31]: 57%
viability, T/C [32]: 64.5%
viability, T/C [33]: 68.7%
viability, T/C [34]: 56.5%
viability, T/C [35]: 48.7%
viability, T/C [36]: 63%
